The structures appear in SMILES notation.

One data set is described as follows: in vitro. Format: in vitro ADME. The conditions noted are these: plasma, pH 7.4. How it is done:
Plasma protein binding study was performed by using a Rapid Equilibrium Dialysis (RED) device containing dialysis membrane with a molecular weight cut-off of 8,000 Daltons. Each dialysis insert contains two chambers. The red chamber was for the plasma while the white chamber was for the buffer. The human and rat plasma (pH adjusted to 7.40) samples of test items and reference items (Warfarin and Propranolol) were prepared at a required test concentration of 5 μM using 5 mM DMSO stocks (final DMSO concentration was 0.1%). 300 μL of plasma sample was added into the sample chamber. 500 μL of buffer was added into the buffer chamber. After sealing the RED device with an adhesive film, incubation was done at 37° C. with shaking at 300 rpm for 4 h. Following incubation, an aliquot of 50 μL was removed from each well (plasma and buffer side) and diluted with equal volume of opposite matrix to nullify the matrix effect. The specimens were subjected to sample extraction in presence of internal standard by liquid-liquid extraction/protein precipitation method. After extraction, the samples were transferred into labeled auto sampler vials and submitted to LC-MS/MS analysis.

A further data set has as its system Enterovirus 71. The experiment in a line: In vitro CPE assay in mammalian cell culture, EV71. Format: cell-based. Particulars: Enterovirus A, viral cytopathic effect in mammalian cell culture, read-out: EV71 inhibition capacity (IC50).
The test system of a further data set is coxsackie B5 virus. The experiment in a line: In vitro CPE assay in mammalian cell culture, B5. It is filed as cell-based. Particulars: viral cytopathic effect in mammalian cell culture, read-out: B5 inhibition capacity (IC50). For orientation: Damage to the host cells serves as the signal in cytopathic effect assays.
A further data set has as its system coxsackie B1 virus. Kind of data set: In vitro CPE assay in mammalian cell culture, B1. Particulars: viral cytopathic effect in mammalian cell culture, read-out: B1 inhibition capacity (IC50). It is filed as cell-based.
A short description of data set [1]: Metabolic stability in human liver microsomes. It is filed as in vitro ADME. Here is the method:
(§1) Metabolic stability in human and rat liver microsomesMetabolic stability was studied using human (HLM) or rat (RLM) liver microsomes. The final composition of the assay included 5 μM of test item and reference item (Diclofenac or Imipramine) prepared from DMSO stock, so that the final concentration of DMSO was 0.1%, 0.125 mg/mL microsomal protein and cofactors (5.0 mM G-6-P, 0.06 U/mL G-6-PDH, 2.0 mM MgCl2, 1.0 mM NADP^+). Test and reference items were incubated with human or rat liver microsomes with or without cofactors. The reaction mixture (100 μL) was removed at specified time periods and the reaction was stopped by addition of stop solution. The samples were extracted in presence of internal standard and were analyzed using LC-MS/MS. The percent of the test/reference item remaining after a specified incubation period was calculated with respect to the peak area ratio at time 0 min.
Background: Liver microsomes are vesicles of endoplasmic reticulum, rich in cytochrome P450 enzymes.

The next data set deals with Enterovirus 30. Kind of data set: In vitro CPE assay in mammalian cell culture, EV30. Particulars: viral cytopathic effect in mammalian cell culture, read-out: EV30 inhibition capacity (IC50). Format: cell-based.
The subject of a further data set is polio virus Sabin 1. Kind of data set: organism not typed. It is filed as cell-based. Particulars: read-out: Polio 1 inhibition capacity (IC50).
In another data set the test system is Enterovirus 6. The experiment in a line: In vitro CPE assay in mammalian cell culture, EV6. Format: cell-based. Particulars: viral cytopathic effect in mammalian cell culture, read-out: EV6 inhibition capacity (IC50).
Data set [2] is described as follows: Metabolic stability in rat liver microsomes. Format: in vitro ADME. The conditions noted are these: 5 μM test item, 0.125 mg/mL microsomal protein. How it is done: as §1
The next data set is described as follows: in vivo. Details: species or system Sprague Dawley rats. Particulars: male, Sprague Dawley, rat, po, 50 mg/kg. Here is the method:
Overnight fasted animals were administered with the test compounds in recommended vehicle 0.4% (v/v) Tween 80+2% (v/v) Glycerol and 15% w/v HPBCD by oral route with a dose of 50 mg/kg body weight at dose volume of 10 mL/kg bw. Under mild isoflurane anesthesia, blood samples were collected into pre-labeled tubes containing anticoagulant (K2EDTA—2 mg/mL blood) during the next 24 hours post dose. Collected blood samples were centrifuged at 4000 rpm, 4° C. for 10 minutes and plasma was separated and stored at −80° C. until analysis.

A further data set deals with coxsackie B2 virus. The experiment in a line: In vitro CPE assay in mammalian cell culture, B2. Format: cell-based. Particulars: viral cytopathic effect in mammalian cell culture, read-out: B2 inhibition capacity (IC50).
For the next data set, the system named is coxsackie B3 virus. The experiment in a line: In vitro CPE assay in mammalian cell culture, B3. It is filed as cell-based. Particulars: Enterovirus B, viral cytopathic effect in mammalian cell culture, read-out: B3 inhibition capacity (IC50).
Another data set deals with Enterovirus 68. Kind of data set: In vitro CPE assay in mammalian cell culture, EV68. Format: cell-based. The conditions noted are these: Enterovirus D, viral cytopathic effect in mammalian cell culture, read-out: EV68 inhibition capacity (IC50).
For the next data set, the system named is coxsackie B4 virus. The experiment in a line: In vitro CPE assay in mammalian cell culture, B4. It is filed as cell-based. The conditions noted are these: Enterovirus B, viral cytopathic effect in mammalian cell culture, read-out: B4 inhibition capacity (IC50).

Take `Cc1cc(NCc2ccncc2)c2nc(C)c(-c3ccc4c(c3)c(C)nn4C)n2n1` [Example 1, 3-(1,3-dimethyl-1H-indazol-5-yl)-2,6-dimethyl-N-(pyridin-4-ylmethyl)imidazo[1,2-b]pyridazin-8-amine]: the fraction unbound at 4 h, 5 μM in the data set “in vitro” (human) was 0.016; in the data set “in vitro” (rat) it was 0.03. Besides, the half-maximal inhibitory concentration (IC50) was below 10 nM in the data set on Enterovirus 71; below 0.1 nM with coxsackie B5 virus; below 10 nM with coxsackie B1 virus; below 0.1 nM in the data set with Enterovirus 30; below 1 nM in the data set on polio virus Sabin 1; below 10 nM with Enterovirus 6. Moreover, the IC50 was below 10 nM in the data set on coxsackie B2 virus, below 1 nM in the data set on coxsackie B3 virus and below 100 nM in the data set with Enterovirus 68. For the same molecule, the “Remaining after 1 h, HLM” value in data set [1] (human liver microsomes, 5 μM test item, 0.125 mg/mL microsomal protein) was found to be 90%. In addition, in data set [1] (human, microsomes), the half-life at 5 μM was above 2 h. The “Remaining after 1 h, RLM” value in [2] was determined as 88%. For the same molecule, the total exposure AUC(0-inf) in “in vivo” came to 31800 ± 8000 ng·h/mL. In the data set “in vivo”, the AUC(0-t) came to 22200 ± 2100 ng·h/mL. Also, the AUCextrap in the data set “in vivo” is 27.8 ± 14.8%. This molecule also returned a maximum concentration (Cmax) in “in vivo” of 3900 ± 400 ng/mL. In “in vivo”, this molecule had an MRT last of 3.4 ± 0.2 h. Also, the Tmax in “in vivo” was 1.7 ± 0.6 h. In addition, the half-life in “in vivo” is 4.3 ± 2 h.

Regarding `Cc1cc(NCc2ccc(S(N)(=O)=O)cc2)n2nc(C)c(-c3ccc4c(c3)c(C)nn4C)c2n1` [Example 13, 4-(((3-(1,3-dimethyl-1H-indazol-5-yl)-2,5-dimethylpyrazolo[1,5-a]pyrimidin-7-yl)amino)methyl)benzene-sulfonamide], the half-inhibitory concentration (IC50) with Enterovirus 71 is below 100 nM; in the data set with coxsackie B4 virus, below 100 nM; in the data set with coxsackie B5 virus it was below 100 nM; in the data set with coxsackie B1 virus, below 1000 nM; in the data set on Enterovirus 30, below 100 nM; in the data set on polio virus Sabin 1, below 100 nM. The IC50 in the data set with Enterovirus 6 was below 1000 nM; with coxsackie B2 virus, below 1000 nM; with coxsackie B3 virus, below 100 nM; in the data set on Enterovirus 68, below 1000 nM. This molecule also gave an AUC(0-inf) in “in vivo” of 76100 ± 26800 ng·h/mL. The molecule also showed an AUC(0-t) in the data set “in vivo” of 62100 ± 10900 ng·h/mL. The molecule also displayed an AUCextrap in the data set “in vivo” of 14.5 ± 17.1%. The Cmax in “in vivo” amounted to 5900 ± 900 ng/mL. Besides, the mean residence time (MRT last) in the data set “in vivo” turned out to be 7.5 ± 1.4 h. In the data set “in vivo”, the time of peak concentration (Tmax) was determined as 2 h. Besides, the half-life in the data set “in vivo” is 8.2 ± 5.4 h.

Turning to `Cc1cc(NCc2cccs2)n2nc(C)c(-c3ccc4c(c3)c(C)nn4C)c2n1` [Example 15, 3-(1,3-dimethyl-1H-indazol-5-yl)-2,5-dimethyl-N-(thiophen-2-ylmethyl)pyrazolo[1,5-a]pyrimidin-7-amine], the 50% inhibitory concentration (IC50) in the data set with Enterovirus 71, with coxsackie B4 virus, in the data set with coxsackie B5 virus, in the data set with coxsackie B1 virus, in the data set on Enterovirus 30 and with polio virus Sabin 1 was below 100 nM throughout. The IC50 in the data set with Enterovirus 6, with coxsackie B2 virus, with coxsackie B3 virus and in the data set on Enterovirus 68 was below 100 nM throughout.

For `Cc1cc(NCc2ccc(NS(C)(=O)=O)cc2)n2nc(C)c(-c3ccc4c(c3)c(C)nn4C)c2n1` [Example 16, N-(4-(((3-(1,3-dimethyl-1H-indazol-5-yl)-2,5-dimethylpyrazolo[1,5-a]pyrimidin-7-yl)amino)meth-yl)phenyl)methane-sulfonamide], the IC50 with Enterovirus 71 was below 1000 nM; in the data set with coxsackie B4 virus, below 100 nM; in the data set on coxsackie B5 virus, below 1000 nM; in the data set on coxsackie B1 virus, below 1000 nM; with Enterovirus 30 it was below 1000 nM; in the data set with polio virus Sabin 1 it was below 1000 nM. In addition, the 50% inhibitory concentration (IC50) is below 1000 nM in the data set with Enterovirus 6, below 1000 nM in the data set with coxsackie B2 virus, below 100 nM with coxsackie B3 virus and below 1000 nM in the data set on Enterovirus 68.

For `Cc1ccc(CNc2nc(C)nc3c(-c4ccc5c(c4)c(C)nn5C)c(C)nn23)cn1` [Example 22, 8-(1,3-dimethyl-1H-indazol-5-yl)-2,7-dimethyl-N-((6-methylpyridin-3-yl)methyl)pyrazolo[1,5-a][1,3,5]triazin-4-amine], the IC50 is below 10 nM in the data set on Enterovirus 71; below 1000 nM with coxsackie B4 virus; below 100 nM with coxsackie B5 virus; below 10 nM in the data set on coxsackie B1 virus; below 100 nM in the data set with Enterovirus 30; below 1 nM in the data set on polio virus Sabin 1. Further, the IC50 in the data set with Enterovirus 6 was below 1000 nM; with coxsackie B2 virus it was below 10 nM; in the data set on coxsackie B3 virus, below 1 nM; in the data set with Enterovirus 68 it was below 100 nM.

Consider `Cc1nc(NCc2ccc(S(N)(=O)=O)cc2)n2nc(C)c(-c3ccc4c(c3)c(C)nn4C)c2n1` [Example 23, 4-(((8-(1,3-dimethyl-1H-indazol-5-yl)-2,7-dimethylpyrazolo[1,5-a][1,3,5]triazin-4-yl)amino)methyl)benzene-sulfonamide], for which the IC50 in the data set on Enterovirus 71 was below 10 nM; in the data set on coxsackie B4 virus, below 10 nM; in the data set with coxsackie B5 virus, below 100 nM; with coxsackie B1 virus, below 100 nM; with Enterovirus 30, below 100 nM; in the data set on polio virus Sabin 1, below 100 nM. Further, the IC50 in the data set with Enterovirus 6, in the data set with coxsackie B2 virus, in the data set with coxsackie B3 virus and in the data set with Enterovirus 68 was below 100 nM each time.

On to `Cc1nc(NCc2ccc(Cl)cc2)n2nc(C)c(-c3ccc4c(c3)c(C)nn4C)c2n1` [Example 24, N-(4-chlorobenzyl)-8-(1,3-dimethyl-1H-indazol-5-yl)-2,7-dimethylpyrazolo[1,5-a][1,3,5]triazin-4-amine], for which the IC50 was below 100 nM in the data set on Enterovirus 71; below 100 nM with coxsackie B4 virus; below 1000 nM with coxsackie B5 virus; below 100 nM in the data set with coxsackie B1 virus; below 100 nM in the data set on Enterovirus 30; below 100 nM with polio virus Sabin 1. Also, the IC50 was below 1000 nM with Enterovirus 6, below 100 nM in the data set on coxsackie B2 virus, below 100 nM in the data set with coxsackie B3 virus and below 1000 nM in the data set on Enterovirus 68.

On to `Cc1nc(NCc2ccc(S(C)(=O)=O)cc2)n2nc(C)c(-c3ccc4c(c3)c(C)nn4C)c2n1` [Example 25, 8-(1,3-dimethyl-1H-indazol-5-yl)-2,7-dimethyl-N-(4-(methyl-sulfonyl)benzyl)pyrazolo[1,5-a][1,3,5]triazin-4-amine], for which the 50% inhibitory concentration (IC50) was below 10 nM in the data set on Enterovirus 71; below 1 nM with coxsackie B4 virus; below 10 nM in the data set on coxsackie B5 virus; below 10 nM with coxsackie B1 virus; below 10 nM with Enterovirus 30; below 1 nM with polio virus Sabin 1. The concentration for half-maximal inhibition (IC50) with Enterovirus 6, with coxsackie B2 virus, with coxsackie B3 virus and in the data set with Enterovirus 68 was below 10 nM in each case.

One may read the fraction unbound as the share of the substance not bound to proteins or other matrix. By IC50 is commonly meant the concentration at which inhibition is half-maximal. One may read the half-life as how long it takes for the measured level to halve. For orientation: AUC(0-inf) means the area under the concentration-time curve extrapolated to infinity. The low end stands for less exposure, the high end for more exposure. In general, AUC(0-t) refers to the area under the concentration-time curve up to a stated or last time point. A word on the Cmax: it is the maximum level reached in the sampled fluid or tissue. By MRT last is commonly meant a mean duration of stay, worked out from the concentration-time curve. What is called Tmax is the time from dosing to the highest level.

Values taken from patent US11001587B2, “Substituted indazoles as phosphatidylinositol kinase inhibitors” (CUROVIR AB, priority 2017, dated 2021).
